Experimental data: patent publication US20140256756A1, “PIPERIDINYL-SUBSTITUTED LACTAMS AS GPR119 MODULATORS” (Array BioPharma Inc., priority 2011, published 2014)

Tested on: modified version of the GPR119 receptor (94% identity to human receptor)
Assay: cAMP production assay (LANCE cAMP kit, TR-FRET) in HEK-293 cells
Type: cell-based
Conditions: for cAMP production in HEK-293 cells: HEK-293 cells stably expressing modified GPR119, test compounds 0.2 nM to 10 μM, one-hour incubation; for Fold over baseline: increase in cAMP relative to basal levels, agonist activity if 1.5-fold or greater
Method in brief: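 Agonist activity meant a 1.5-fold or greater cAMP rise over basal, with levels interpolated from a standard curve after TR-FRET competition read-out. HEK-293 cells with tetracycline-inducible modified GPR119 (1 μg/mL doxycycline overnight) were incubated one hour at ambient temperature with 0.2 nM to 10 μM compound, 0.5% DMSO.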

With `CC(C)c1nsc(N2CCC(N3CC[C@H](Oc4ccc(S(C)(=O)=O)nc4)C3=O)CC2)n1` [Example 94, (S)-1-(1-(3-isopropyl-1,2,4-thiadiazol-5-yl)piperidin-4-yl)-3-((6-(methylsulfonyl)pyridin-3-yl)oxy)pyrrolidin-2-one] the “cAMP production in HEK-293 cells” value was 28.1 nmol and the Fold over baseline was 4.0.
For `CC(C)(C)n1nnc(N2CCC(N3CC[C@H](Oc4ccc(S(C)(=O)=O)cc4F)C3=O)CC2)n1` [Example 95, (S)-1-(1-(2-(tert-butyl)2H-tetrazol-5-yl)piperidin-4-yl)-3-(2-fluoro-4-(methylsulfonyl)phenoxy)pyrrolidin-2-one], the “cAMP production in HEK-293 cells” value was 16.7 nmol and the Fold over baseline was 3.4.
For `CS(=O)(=O)c1cc(F)c(O[C@H]2CCN(C3CCN(c4nnc(C(F)(F)F)s4)CC3)C2=O)cc1F` [Example 96, (S)-3-(2,5-difluoro-4-(methylsulfonyl)phenoxy)-1-(1-(5-(trifluoromethyl)-1,3,4-thiadiazol-2-yl)piperidin-4-yl)pyrrolidin-2-one], the “cAMP production in HEK-293 cells” value was 14.2 nmol and the Fold over baseline was 3.1.
With `CS(=O)(=O)c1cc(F)c(O[C@H]2CCN(C3CCN(c4cnc(C(F)(F)F)o4)CC3)C2=O)cc1F` [Example 97, (S)-3-(2,5-difluoro-4-(methylsulfonyl)phenoxy)-1-(1-(2-(trifluoromethyl)oxazol-5-yl)piperidin-4-yl)pyrrolidin-2-one] the “cAMP production in HEK-293 cells” value was 19.0 nmol and the Fold over baseline was 4.1.
For `CS(=O)(=O)c1cc(F)c(O[C@H]2CCN(C3CCN(c4cnc(C(F)(F)F)s4)CC3)C2=O)cc1F` [Example 98, (S)-3-(2,5-difluoro-4-(methylsulfonyl)phenoxy)-1-(1-(2-(trifluoromethyl)thiazol-5-yl)piperidin-4-yl)pyrrolidin-2-one], the “cAMP production in HEK-293 cells” value was 23.7 nmol and the Fold over baseline was 5.4.
